This experiment has as its target ClbH (full-length) (Escherichia coli, UniProt Q0P7J8). Nature of the experiment: ATP-[…]PPi exchange. Format: biochemical. Particulars: Mg2+, pH 8.3, room temperature, 1 mM amino acid.

Sequence of ClbH (full-length) (Q0P7J8 1-1598): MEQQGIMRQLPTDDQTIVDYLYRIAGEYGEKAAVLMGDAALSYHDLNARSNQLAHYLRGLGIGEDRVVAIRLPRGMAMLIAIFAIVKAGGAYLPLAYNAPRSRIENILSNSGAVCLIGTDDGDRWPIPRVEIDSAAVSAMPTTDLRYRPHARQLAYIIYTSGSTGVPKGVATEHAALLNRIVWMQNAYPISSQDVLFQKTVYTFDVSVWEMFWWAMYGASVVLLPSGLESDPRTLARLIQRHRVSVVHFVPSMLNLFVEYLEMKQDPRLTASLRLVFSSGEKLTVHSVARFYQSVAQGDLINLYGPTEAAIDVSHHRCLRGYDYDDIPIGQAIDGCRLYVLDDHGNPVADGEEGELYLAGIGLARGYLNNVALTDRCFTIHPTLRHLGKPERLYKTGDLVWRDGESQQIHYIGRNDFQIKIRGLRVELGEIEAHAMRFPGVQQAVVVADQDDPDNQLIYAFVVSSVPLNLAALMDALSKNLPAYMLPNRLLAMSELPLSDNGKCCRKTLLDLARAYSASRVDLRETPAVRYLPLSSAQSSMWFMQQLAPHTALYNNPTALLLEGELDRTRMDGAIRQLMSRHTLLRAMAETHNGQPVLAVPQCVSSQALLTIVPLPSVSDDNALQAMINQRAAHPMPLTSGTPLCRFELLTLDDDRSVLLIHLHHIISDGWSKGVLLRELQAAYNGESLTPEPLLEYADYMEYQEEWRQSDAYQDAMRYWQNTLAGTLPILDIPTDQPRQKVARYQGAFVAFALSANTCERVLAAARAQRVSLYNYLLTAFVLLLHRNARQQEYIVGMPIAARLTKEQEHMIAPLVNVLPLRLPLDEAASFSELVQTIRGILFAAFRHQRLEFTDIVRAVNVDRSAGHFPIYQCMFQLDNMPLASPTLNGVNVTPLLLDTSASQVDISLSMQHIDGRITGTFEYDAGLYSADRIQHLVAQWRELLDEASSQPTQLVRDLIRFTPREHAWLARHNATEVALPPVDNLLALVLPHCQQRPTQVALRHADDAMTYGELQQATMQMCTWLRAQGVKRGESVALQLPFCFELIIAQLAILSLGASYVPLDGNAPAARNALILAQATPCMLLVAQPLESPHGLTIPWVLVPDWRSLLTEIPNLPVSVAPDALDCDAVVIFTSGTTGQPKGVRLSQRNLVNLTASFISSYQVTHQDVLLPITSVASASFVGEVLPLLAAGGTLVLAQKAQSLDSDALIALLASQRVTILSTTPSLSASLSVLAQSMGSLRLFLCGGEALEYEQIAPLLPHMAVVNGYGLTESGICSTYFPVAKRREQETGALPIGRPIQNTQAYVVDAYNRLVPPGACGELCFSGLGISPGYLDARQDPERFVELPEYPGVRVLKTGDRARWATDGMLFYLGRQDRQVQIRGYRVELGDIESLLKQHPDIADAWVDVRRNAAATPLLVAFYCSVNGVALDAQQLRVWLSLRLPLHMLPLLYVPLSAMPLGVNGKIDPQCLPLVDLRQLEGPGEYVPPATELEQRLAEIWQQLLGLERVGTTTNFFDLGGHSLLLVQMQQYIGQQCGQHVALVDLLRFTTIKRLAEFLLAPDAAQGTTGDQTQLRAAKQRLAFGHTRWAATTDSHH

Take `N[C@@H](CO)C(=O)O` [L-Ser]: the “ATP-[32P]PPi exchange” value was “full-length ClbH activated L-Ser and SAM (Fig. 1b)”.
